What was measured:
Format in all cases: biochemical
BGL-2T* [1] = target: T1, BGL-2T* (Talaromyces amestolkiae, UniProt A0A186NAE7); assay: glucose release (Glucose-TR kit), Lineweaver-Burk; settings: 100 mM sodium acetate pH 4, optimal temperature (70 °C), BSA; read-out: K m (mM) / BGL-2T*
T1 construct: gene bgl2; recombinant truncated form lacking linker and CBD; stop codon in retained third intron; pPIC9, Pichia pastoris KM71, secreted; monomer
Text: glucose release (Glucose-TR kit), Lineweaver-Burk on BGL-2T*

BGL-2T* [2] = target: T1, BGL-2T*; assay: o-nitrophenol release, Lineweaver-Burk; settings: acetate buffer, optimal pH (3-4) and temperature (70 °C), BSA; read-out: K m (mM) / BGL-2T*
Text: o-nitrophenol release, Lineweaver-Burk on BGL-2T*

BGL-2T* [3] = target: T1, BGL-2T*; assay: p-nitrophenol release at […] nm, Lineweaver-Burk; settings: acetate buffer, optimal pH (3-4) and temperature (70 °C), BSA; read-out: K m (mM) / BGL-2T*

T1 sequence (A0A186NAE7 1-700 limits assumed): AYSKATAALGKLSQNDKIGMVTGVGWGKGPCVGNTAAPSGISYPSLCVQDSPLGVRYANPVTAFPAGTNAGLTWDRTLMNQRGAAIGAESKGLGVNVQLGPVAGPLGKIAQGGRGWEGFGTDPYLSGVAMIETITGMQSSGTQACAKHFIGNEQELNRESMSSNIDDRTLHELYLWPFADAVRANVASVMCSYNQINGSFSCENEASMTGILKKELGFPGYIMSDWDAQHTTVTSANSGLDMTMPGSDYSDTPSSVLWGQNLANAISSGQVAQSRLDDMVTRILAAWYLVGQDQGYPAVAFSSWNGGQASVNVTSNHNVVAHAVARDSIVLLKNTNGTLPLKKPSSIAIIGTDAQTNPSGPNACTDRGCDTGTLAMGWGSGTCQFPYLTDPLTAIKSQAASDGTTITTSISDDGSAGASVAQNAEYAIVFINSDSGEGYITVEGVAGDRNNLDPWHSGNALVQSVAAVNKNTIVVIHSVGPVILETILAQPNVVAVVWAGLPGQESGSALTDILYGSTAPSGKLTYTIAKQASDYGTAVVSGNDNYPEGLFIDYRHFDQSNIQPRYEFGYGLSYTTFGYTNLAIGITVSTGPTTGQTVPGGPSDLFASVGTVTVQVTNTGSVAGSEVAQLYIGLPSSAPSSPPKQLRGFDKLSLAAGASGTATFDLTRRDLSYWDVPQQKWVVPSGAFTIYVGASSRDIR

OC[C@H]1O[C@@H](O[C@H]2[C@H](O)[C@@H](O)[C@H](O[C@H]3[C@H](O)[C@@H](O)C(O)O[C@@H]3CO)O[C@@H]2CO)[C@H](O)[C@@H](O)[C@@H]1O (some centres unmarked) [Cellotriose]
Km (BGL-2T* [1]): 1.42 ± 0.06 mM

OC[C@H]1O[C@@H](O[C@H]2[C@H](O)[C@@H](O)[C@H](O[C@H]3[C@H](O)[C@@H](O)[C@H](O[C@H]4[C@H](O)[C@@H](O)C(O)O[C@@H]4CO)O[C@@H]3CO)O[C@@H]2CO)[C@H](O)[C@@H](O)[C@@H]1O (some centres unmarked) [Cellotetraose]
Km (BGL-2T* [1]): 0.49 ± 0.03 mM

O=[N+]([O-])c1ccccc1O[C@@H]1O[C@H](CO)[C@@H](O)[C@H](O)[C@H]1O [oNPG, o-nitrophenyl-β-D-glucopyranoside]
Km (BGL-2T* [2]): 0.67 ± 0.04 mM

OC[C@H]1O[C@@H](O[C@H]2[C@H](O)[C@@H](O)[C@H](O[C@H]3[C@H](O)[C@@H](O)[C@H](O[C@H]4[C@H](O)[C@@H](O)[C@H](O[C@H]5[C@H](O)[C@@H](O)C(O)O[C@@H]5CO)O[C@@H]4CO)O[C@@H]3CO)O[C@@H]2CO)[C@H](O)[C@@H](O)[C@@H]1O (some centres unmarked) [Cellopentaose]
Km (BGL-2T* [1]): 0.68 ± 0.01 mM

O=[N+]([O-])c1ccc(O[C@@H]2O[C@H](CO)[C@@H](O)[C@H](O)[C@H]2O)cc1 [pNPG, p-nitrophenyl-β-D-glucopyranoside]
Km (BGL-2T* [3]): 0.34 ± 0.02 mM

Reference: publication PMC5674860, “A novel, highly efficient β-glucosidase with a cellulose-binding domain: characterization and properties of native and recombinant proteins” (Biotechnology for Biofuels, 2017)
